In ChEMBL document CHEMBL5214957:
Each block holds one compound with its values, some of them ahead of it.

Legend:
Format in all cases: cell-based
[1] = biological target: T1, Potassium channel subfamily T member 1 (Homo sapiens, UniProt Q5JUK3); experiment: Inhibition of wild-type human Slack expressed in HEK293 cells measured by thallium flux assay
T1 sequence (Q5JUK3 whole entry): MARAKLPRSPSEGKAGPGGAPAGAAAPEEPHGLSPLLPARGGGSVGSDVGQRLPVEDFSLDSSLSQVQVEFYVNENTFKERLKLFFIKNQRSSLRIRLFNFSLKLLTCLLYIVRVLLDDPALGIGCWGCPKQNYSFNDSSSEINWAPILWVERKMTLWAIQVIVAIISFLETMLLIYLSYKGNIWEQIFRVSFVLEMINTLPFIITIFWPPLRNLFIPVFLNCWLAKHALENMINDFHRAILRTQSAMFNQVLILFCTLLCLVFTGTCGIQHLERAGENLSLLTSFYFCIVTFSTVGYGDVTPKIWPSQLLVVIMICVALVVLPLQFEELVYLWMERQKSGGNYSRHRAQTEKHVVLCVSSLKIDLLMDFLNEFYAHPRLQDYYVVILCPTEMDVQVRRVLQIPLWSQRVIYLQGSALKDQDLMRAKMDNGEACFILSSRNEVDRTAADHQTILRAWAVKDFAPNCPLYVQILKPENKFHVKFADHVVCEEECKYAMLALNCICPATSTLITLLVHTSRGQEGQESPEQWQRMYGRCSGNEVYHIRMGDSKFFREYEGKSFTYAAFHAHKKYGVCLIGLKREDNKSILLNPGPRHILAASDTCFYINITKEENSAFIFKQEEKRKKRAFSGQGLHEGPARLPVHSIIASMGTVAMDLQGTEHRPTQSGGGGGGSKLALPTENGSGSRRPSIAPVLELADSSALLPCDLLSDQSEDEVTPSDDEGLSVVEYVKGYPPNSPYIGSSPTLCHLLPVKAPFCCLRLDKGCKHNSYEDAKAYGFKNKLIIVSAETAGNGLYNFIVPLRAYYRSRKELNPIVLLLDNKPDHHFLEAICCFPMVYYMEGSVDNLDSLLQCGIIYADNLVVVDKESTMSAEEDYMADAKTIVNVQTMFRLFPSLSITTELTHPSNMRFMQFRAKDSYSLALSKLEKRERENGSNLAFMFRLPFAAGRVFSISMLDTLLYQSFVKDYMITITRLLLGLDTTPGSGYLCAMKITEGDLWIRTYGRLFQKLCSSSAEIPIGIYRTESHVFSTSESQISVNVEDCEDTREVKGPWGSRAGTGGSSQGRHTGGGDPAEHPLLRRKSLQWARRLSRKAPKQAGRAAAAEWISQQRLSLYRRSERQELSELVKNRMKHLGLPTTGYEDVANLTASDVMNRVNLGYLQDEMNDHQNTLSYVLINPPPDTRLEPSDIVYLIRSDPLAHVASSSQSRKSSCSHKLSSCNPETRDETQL

[2] = Inhibition of human Slack A934T mutant expressed in HEK293 cells measured by thallium flux assay
[3] = biological target: T2, Potassium channel subfamily T member 2 (Homo sapiens, UniProt Q6UVM3); experiment: Inhibition of Slick (unknown origin) expressed in HEK293 cells measured by thallium flux assay
T2 sequence (Q6UVM3 whole entry): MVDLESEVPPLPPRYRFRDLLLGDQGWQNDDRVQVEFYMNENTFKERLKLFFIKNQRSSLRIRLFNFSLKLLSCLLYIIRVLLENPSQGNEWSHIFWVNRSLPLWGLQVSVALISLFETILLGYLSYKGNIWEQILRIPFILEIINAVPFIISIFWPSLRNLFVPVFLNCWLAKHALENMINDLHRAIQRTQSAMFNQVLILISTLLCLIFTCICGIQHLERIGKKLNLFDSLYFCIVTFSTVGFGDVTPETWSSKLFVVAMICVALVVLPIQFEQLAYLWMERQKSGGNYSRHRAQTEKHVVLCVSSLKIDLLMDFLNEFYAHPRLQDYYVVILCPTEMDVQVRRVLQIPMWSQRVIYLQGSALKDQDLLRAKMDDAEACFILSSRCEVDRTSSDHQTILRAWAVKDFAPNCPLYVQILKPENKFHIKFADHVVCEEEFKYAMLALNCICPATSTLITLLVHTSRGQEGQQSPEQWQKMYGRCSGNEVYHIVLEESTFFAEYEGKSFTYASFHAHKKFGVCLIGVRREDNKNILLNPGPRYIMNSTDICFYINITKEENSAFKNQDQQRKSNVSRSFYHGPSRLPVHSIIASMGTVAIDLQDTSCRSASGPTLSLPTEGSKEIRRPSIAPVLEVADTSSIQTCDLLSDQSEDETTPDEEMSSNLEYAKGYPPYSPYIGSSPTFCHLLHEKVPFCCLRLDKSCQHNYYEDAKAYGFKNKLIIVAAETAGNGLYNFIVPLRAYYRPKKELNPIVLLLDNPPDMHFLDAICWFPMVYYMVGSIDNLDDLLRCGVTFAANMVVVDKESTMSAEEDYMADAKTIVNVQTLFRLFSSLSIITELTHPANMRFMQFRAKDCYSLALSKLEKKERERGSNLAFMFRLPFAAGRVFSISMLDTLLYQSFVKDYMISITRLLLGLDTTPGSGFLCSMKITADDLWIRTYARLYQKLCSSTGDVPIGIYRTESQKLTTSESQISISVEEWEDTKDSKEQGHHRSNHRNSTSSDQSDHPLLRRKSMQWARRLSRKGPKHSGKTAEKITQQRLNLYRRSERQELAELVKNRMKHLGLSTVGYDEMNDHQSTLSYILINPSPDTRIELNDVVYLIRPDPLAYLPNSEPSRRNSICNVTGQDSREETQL

[4] = biological target: T3, Potassium channel subfamily T member 2 (Homo sapiens) (UniProt Q6UVM3); experiment: Inhibition of Slick (unknown origin) expressed in HEK293 cells at 30 uM measured by thallium flux assay relative to control
T3 sequence (whole entry): T2 sequence (Q6UVM3 whole entry)

[5] = biological target: T4, Calcium-activated potassium channel subunit alpha-1 (Homo sapiens, UniProt Q12791); experiment: Inhibition of Maxi-K (unknown origin) expressed in HEK293 cells measured by thallium flux assay
T4 sequence (Q12791 whole entry): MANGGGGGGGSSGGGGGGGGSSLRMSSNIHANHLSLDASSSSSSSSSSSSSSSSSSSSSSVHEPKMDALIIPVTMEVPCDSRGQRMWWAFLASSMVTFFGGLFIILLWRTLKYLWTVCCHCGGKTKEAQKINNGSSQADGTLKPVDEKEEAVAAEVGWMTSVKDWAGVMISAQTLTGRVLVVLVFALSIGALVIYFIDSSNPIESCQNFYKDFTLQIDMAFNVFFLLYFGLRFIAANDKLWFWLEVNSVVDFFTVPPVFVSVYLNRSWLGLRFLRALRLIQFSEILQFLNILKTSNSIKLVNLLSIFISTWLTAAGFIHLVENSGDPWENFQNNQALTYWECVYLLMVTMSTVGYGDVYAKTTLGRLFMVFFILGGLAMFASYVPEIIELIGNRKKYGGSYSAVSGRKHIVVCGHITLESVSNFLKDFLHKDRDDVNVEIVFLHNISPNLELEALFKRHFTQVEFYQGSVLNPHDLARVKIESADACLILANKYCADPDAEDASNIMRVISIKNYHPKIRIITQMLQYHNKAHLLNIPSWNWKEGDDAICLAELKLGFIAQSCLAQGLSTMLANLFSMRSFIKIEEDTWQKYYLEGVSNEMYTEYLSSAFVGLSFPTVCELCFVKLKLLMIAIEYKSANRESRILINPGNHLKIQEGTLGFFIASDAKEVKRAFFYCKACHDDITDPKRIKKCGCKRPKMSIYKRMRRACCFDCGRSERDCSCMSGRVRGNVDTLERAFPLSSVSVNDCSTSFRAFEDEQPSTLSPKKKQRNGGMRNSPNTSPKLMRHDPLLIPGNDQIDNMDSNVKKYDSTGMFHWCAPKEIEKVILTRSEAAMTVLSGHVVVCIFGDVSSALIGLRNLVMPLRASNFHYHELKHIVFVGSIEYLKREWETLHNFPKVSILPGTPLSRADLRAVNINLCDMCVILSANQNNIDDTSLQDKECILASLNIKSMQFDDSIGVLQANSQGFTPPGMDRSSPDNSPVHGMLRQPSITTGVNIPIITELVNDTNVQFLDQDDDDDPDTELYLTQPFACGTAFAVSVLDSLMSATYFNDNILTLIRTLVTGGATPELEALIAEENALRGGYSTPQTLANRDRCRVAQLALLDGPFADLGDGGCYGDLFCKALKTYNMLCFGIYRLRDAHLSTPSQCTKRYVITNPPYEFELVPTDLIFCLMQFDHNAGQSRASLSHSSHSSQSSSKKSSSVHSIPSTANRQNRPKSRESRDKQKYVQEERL

[6] = biological target: T4, Calcium-activated potassium channel subunit alpha-1; experiment: Inhibition of Maxi-K (unknown origin) expressed in HEK293 cells at 30 uM measured by thallium flux assay relative to control
[7] = biological target: T1, Potassium channel subfamily T member 1; experiment: Inhibition of wild-type Slack (unknown origin) expressed in HEK293 cells measured by whole-cell electrophysiology assay
[8] = Inhibition of Slack A934T mutant (unknown origin) expressed in HEK293 cells measured by whole-cell electrophysiology assay; settings: Homo sapiens
[9] = biological target: T1, Potassium channel subfamily T member 1; experiment: Activation of wild-type human Slack expressed in HEK293 cells measured by thallium flux assay

IC50 [1]: 2.4 µM | IC50 [2]: 1.1 µM | IC50 [3]: > 10 µM | Efficacy [4]: 50% | IC50 [5]: > 10 µM | Efficacy [6]: 32% | IC50 [7]: 1.7 µM | IC50 [8]: 1.9 µM
SMILES: COc1ccc(Cl)cc1NC(=O)CN1CCN(S(=O)(=O)N2CCC(C)CC2)C[C@H]1C

IC50 [3]: > 10 µM
SMILES: COc1ccc(Cl)cc1NC(=O)[C@H](C)N1CCN(S(=O)(=O)N2CCC(C(F)(F)F)CC2)CC1

IC50 [1]: 5.1 µM
SMILES: CC1CCN(S(=O)(=O)N2CCN(CC(=O)Nc3cc(Cl)ccc3OC(C)C)CC2)CC1

IC50 [1]: 1.4 µM
SMILES: COc1ccc(Br)cc1NC(=O)CN1CCN(S(=O)(=O)N2CCC(C)CC2)CC1

IC50 [1]: 7.1 µM
SMILES: CCOc1ccc(Cl)cc1NC(=O)CN1CCN(S(=O)(=O)N2CCC(C)CC2)CC1

IC50 [1]: 2.4 µM | IC50 [2]: 1.4 µM | IC50 [3]: > 10 µM | IC50 [7]: 1.7 µM | IC50 [8]: 1.6 µM
SMILES: COc1ccc(Cl)cc1NC(=O)CN1CCN(S(=O)(=O)N2CCC(C)CC2)CC1

EC50 [9]: > 10 µM
SMILES: COc1ccc(Cl)cc1NC(=O)CN1CCN(S(=O)(=O)N2CCN(C(=O)N3CCCCCC3)CC2)CC1

IC50 [1]: > 10 µM
SMILES: COc1ccc(Cl)cc1NC(=O)CN(C)CCN(C)S(=O)(=O)N1CCC(C)CC1

IC50 [3]: 4.1 µM | IC50 [5]: > 10 µM
SMILES: COc1ccc(C(F)(F)F)cc1NC(=O)CN1CCN(S(=O)(=O)N2CCC(C)CC2)CC1

EC50 [9]: 4.1 µM
SMILES: Cc1ccc(NC(=O)CN2CCN(S(=O)(=O)N3CCC(C)CC3)CC2)cc1

IC50 [1]: > 10 µM
SMILES: Cc1ccc(Cl)cc1NC(=O)CN1CCN(S(=O)(=O)N2CCC(C)CC2)CC1

EC50 [9]: 4.6 µM
SMILES: CC1CCN(S(=O)(=O)N2CCN(CC(=O)Nc3cccc(F)c3)CC2)CC1

IC50 [1]: 6.2 µM
SMILES: COc1ccc(Cl)cc1NC(=O)N1CCCN(S(=O)(=O)N2CCC(C)CC2)CC1

IC50 [1]: 13 µM
SMILES: COc1ccc(Cl)cc1NC(=O)CN1CCN(S(=O)(=O)N2CCC(C)CC2)[C@H](C)C1

EC50 [9]: > 10 µM
SMILES: COc1ccc(Cl)cc1NC(=O)CN1CCN(S(=O)(=O)N2CCN(S(=O)(=O)N3CCC(F)(F)C3)CC2)CC1

IC50 [1]: > 10 µM
SMILES: COc1ccc(C)cc1NC(=O)CN1CCN(S(=O)(=O)N2CCC(C)CC2)CC1

EC50 [9]: 3.8 µM
SMILES: CC1CCN(S(=O)(=O)N2CCN(CC(=O)Nc3cc(Cl)ccc3F)CC2)CC1

IC50 [1]: > 10 µM
SMILES: COc1ccccc1NC(=O)CN1CCN(S(=O)(=O)N2CCC(C)CC2)CC1

IC50 [1]: > 10 µM
SMILES: CCCC1CCN(C(=O)N2CCN(S(=O)(=O)N3CCN(CC(=O)Nc4cc(Cl)ccc4OC)CC3)CC2)CC1

IC50 [1]: > 10 µM
SMILES: COc1ccc(Cl)cc1NC(=O)CN1CCN(S(=O)(=O)N2CCC(C)CC2)[C@@H](C)C1

IC50 [1]: 3.5 µM | IC50 [2]: 2.1 µM
SMILES: COc1ccc(Cl)cc1NC(=O)CN1CCN(S(=O)(=O)N2CCC(C)CC2)C[C@@H]1C

IC50 [1]: 4.9 µM | IC50 [2]: 2.3 µM
SMILES: COc1ccc(F)cc1NC(=O)CN1CCN(S(=O)(=O)N2CCC(C)CC2)CC1

IC50 [1]: 4.3 µM | IC50 [2]: 3.1 µM
SMILES: CCCOc1ccc(Cl)cc1NC(=O)CN1CCN(S(=O)(=O)N2CCC(C)CC2)CC1

EC50 [9]: > 10 µM
SMILES: COc1ccc(Cl)cc1NC(=O)CN1CCN(S(=O)(=O)N2CCN(C(=O)N3CCCCC3)CC2)CC1

EC50 [9]: > 10 µM
SMILES: COc1ccc(Cl)cc1NC(=O)N1CC2(CCN(S(=O)(=O)N3CCC(C)CC3)CC2)C1

IC50 [1]: > 10 µM
SMILES: COc1ccc(Cl)cc1NC(=O)N1CC2(C1)CN(S(=O)(=O)N1CCC(C)CC1)C2

EC50 [9]: > 10 µM
SMILES: COc1ccc(NC(=O)CN2CCN(S(=O)(=O)N3CCC(C)CC3)CC2)cc1
